Data: patent US9512117B2 (priority 2010, dated 2016)
“And” between values parts separate entries of the source, which are not always exact repeats. Identical values can stand only once.

Legend:
[1] = logP by HPLC on reversed-phase columns (C 18), EEC directive 79/831 Annex V.A8; format: physicochemical; settings: LC-MS; for Log P [a] / chromatographic logP: acidic range, pH 2.7, 0.1% aqueous formic acid and acetonitrile; for Log P [b]: neutral range, pH 7.8, 0.001 molar aqueous ammonium hydrogencarbonate and acetonitrile; for chromatographic logP: reversed-phase HPLC column (C18), read-out: Log P [a]
Protocol: The logP values were measured according to EEC directive 79/831 Annex V.A8 by HPLC (High Performance Liquid Chromatography) on reversed-phase columns (C 18), using the methods below:
^[a] The LC-MS determination in the acidic range is effected at pH 2.7 with 0.1% aqueous formic acid and acetonitrile (contains 0.1% formic acid) as eluents; linear gradient from 10% acetonitrile to 95% acetonitrile.
^[b] The LC-MS determination in the neutral range is effected at pH 7.8 using 0.001 molar aqueous ammonium hydrogencarbonate solution and acetonitrile as eluents; linear gradient from 10% acetonitrile to 95% acetonitrile.
The calibration is effected with unbranched alkan-2-ones (having 3 to 16 carbon atoms) with known logP values (logP values determined on the basis of the retention times by linear interpolation between two successive alkanones).

Plasmopara viticola = experiment: Plasmopara test (grapevine) / protective; format: in vivo; settings: young grapevine plants, protective spray, 10 ppm active ingredient, evaluation 6 days after inoculation; 0% = control, 100% = no infection
Protocol: Plasmopara Test (Grapevine)/Protective
• Solvent: 24.5 parts by weight of acetone • 24.5 parts by weight of dimethylacetamide • Emulsifier: 1 part by weight of alkylaryl polyglycol ether
To produce a suitable active ingredient formulation, 1 part by weight of active ingredient is mixed with the stated amounts of solvent and emulsifier, and the concentrate is diluted with water to the desired concentration.
To test for protective efficacy, young plants are sprayed with the active ingredient formulation at the stated application rate. After the spray coating has dried on, the plants are inoculated with an aqueous spore suspension of Plasmopara viticola and then remain in an incubation cabin at approx. 20° C. and 100% relative air humidity for 1 day. Subsequently, the plants are placed in a greenhouse at approx. 21° C. and approx. 90% air humidity for 4 days. The plants are then moistened and placed in an incubation cabin for 1 day.
Evaluation follows 6 days after the inoculation. 0% means an efficacy which corresponds to that of the control, whereas an efficacy of 100% means that no infection is observed.
In this test, the following inventive compounds show, at an active ingredient concentration of 10 ppm, an efficacy of 70% or more: […]

Phytophthora infestans = format: in vivo; settings: young tomato plants, protective spray, 100 ppm active ingredient, evaluation 7 days after inoculation; 0% = control, 100% = no infection

Compound	Log P [a] [1]	Eff. % (Plasmopara viticola)	Log P [b] [1]	Eff. % (Phytophthora infestans)	chromatographic logP [1]
Cc1cc(C(F)(F)F)nn1CC(=O)N1CCC(c2nc(C3=NOC(c4ccccc4OCC4CC4)C3)cs2)CC1 (stereo not drawn) [Ex. 17]	4.03[a]	92%	–	–	–
COCCOc1cccc(F)c1C1CC(c2csc(C3CCN(C(=O)Cn4nc(C(F)(F)F)cc4C)CC3)n2)=NO1 (racemic) [Ex. 49]	3.28[a];	100%	3.17[b]	90%	–
CS(=O)(=O)Nc1ccccc1C1CC(c2csc(C3CCN(C(=O)Nc4cc(C(F)F)ccc4C(F)F)CC3)n2)=NO1 (stereo not drawn) [Ex. 6, N-[2,5-Bis(difluoromethyl)phenyl]-4-[4-(5-{2-[(methylsulphonyl)amino]phenyl}-4,5-dihydro-1,2-oxazol-3-yl)-1,3-thiazol-2-yl]piperidine-1-carboxamide]	–	98%	–	95%	2.72
C=CCOc1c(F)cccc1C1CC(c2csc(C3CCN(C(=O)Cn4nc(C(F)(F)F)cc4C)CC3)n2)=NO1 (racemic) [Ex. 52]	3.97[a];	98%	3.84[b]	97%	–
Cc1cc(C(F)(F)F)nn1CC(=O)N1CCC(c2nc(C3=NOC(c4ccccc4C[S+](C)[O-])C3)cs2)CC1 (mixture of isomers) [Ex. 35]	2.34[a]	–	–	100%	–
Cc1ccc(Cl)cc1NC(=O)N1CCC(c2nc(C3=NOC(c4cccc(C=O)c4)C3)cs2)CC1 (stereo not drawn) [Ex. 2]	3.05[a]	100%	–	100%	–
Cc1cc(C(F)(F)F)nn1CC(=O)N1CCC(c2nc(C3=NOC(c4ccc(OC(=O)C5CC5)cc4)C3)cs2)CC1 (racemic) [Ex. 47]	3.49[a];	86%	3.4[b]	100%	–
Cc1ccc(Cl)cc1NC(=O)N1CCC(c2nc(C3=NOC(c4ccccc4C=O)C3)cs2)CC1 (stereo not drawn) [Ex. 3, N-(5-Chloro-2-methylphenyl)-4-{4-[5-(2-formylphenyl)-4,5-dihydro-1,2-oxazol-3-yl]-1,3-thiazol-2-yl}piperidine-1-carboxamide]	–	100%	–	100%	3.35
C=CCOc1cccc(C2CC(c3csc(C4CCN(C(=O)Cn5nc(C(F)(F)F)cc5C)CC4)n3)=NO2)c1 (racemic) [Ex. 41]	3.62[a];	78%	3.68[b];	98% and 97%	–
C#CCOc1cc(C)ccc1C1CC(c2csc(C3CCN(C(=O)Cn4nc(C(F)F)cc4C)CC3)n2)=NO1 (stereo not drawn) [Ex. 23]	3.23[a];	–	3.23[b];	–	–
Cc1cc(C(F)(F)F)nn1CC(=O)N1CCC(c2nc(C3=NOC(c4ccccc4COCC(F)(F)F)C3)cs2)CC1 (racemic) [Ex. 43]	3.77[a]	83%	–	97%	–
C#CCOc1ccccc1C1CC(c2csc(C3CCN(C(=O)Cn4nc(C)cc4C(F)F)CC3)n2)=NO1 (stereo not drawn) [Ex. 29]	3.03[a]	100%	–	100%	–
Cc1cc(C(F)(F)F)nn1CC(=O)N1CCC(c2nc(C3=NOC(c4ccccc4OC(=O)C4CC4)C3)cs2)CC1 (racemic) [Ex. 56]	3.52[a];	98%	3.41[b]	89%	–
CC#CCOc1cc(OC)ccc1C1CC(c2csc(C3CCN(C(=O)Cn4nc(C(F)F)cc4C)CC3)n2)=NO1 (stereo not drawn) [Ex. 15]	3.28[a]	–	–	–	–
C#CCOc1cccc(Cl)c1C1CC(c2csc(C3CCN(C(=O)Nc4cc(C)ccc4C)CC3)n2)=NO1 (racemic) [Ex. 38]	3.68[a];	100%	3.57[b]	94%	–
Cc1cc(C(F)(F)F)nn1CC(=O)N1CCC(c2nc(C3=NOC(c4cccc(C=O)c4)C3)cs2)CC1 (stereo not drawn) [Ex. 1]	2.83[a]	98%	–	100%	–
C=CCOc1cccc(Cl)c1C1CC(c2csc(C3CCN(C(=O)Nc4cc(Cl)ccc4C)CC3)n2)=NO1 (racemic) [Ex. 39]	4.21[a];	100%	4.11[b]	94%	–
C#CCOc1ccccc1C1CC(c2csc(C3CCN(C(=O)Nc4cc(C)ccc4C)CC3)n2)=NO1 (racemic) [Ex. 45]	3.43[a];	96%	3.41[b]	100%	–
C=CCOc1cc(C)ccc1C1CC(c2csc(C3CCN(C(=O)Cn4nc(C(F)F)cc4C)CC3)n2)=NO1 (stereo not drawn) [Ex. 22]	3.62[a];	–	3.66[b];	–	–

Compound	Log P [a] [1]	Eff. % (Plasmopara viticola)	Log P [b] [1]	Eff. % (Phytophthora infestans)	chromatographic logP [1]
C=CCOc1cccc(Cl)c1C1CC(c2csc(C3CCN(C(=O)Nc4cc(C)ccc4C)CC3)n2)=NO1 (racemic) [Ex. 42]	3.98[a];	96%	3.91[b]	94%	–
Cc1cc(C(F)(F)F)nn1CC(=O)N1CCC(c2nc(C3=NOC(c4ccccc4CS(C)(=O)=O)C3)cs2)CC1 (racemic) [Ex. 34]	2.6[a]	84%	–	100%	–
O=C(Oc1ccccc1C1CC(c2csc(C3CCN(C(=O)Cn4nc(C(F)(F)F)cc4C(F)(F)F)CC3)n2)=NO1)C1CC1 (stereo not drawn) [Ex. 14]	4.04[a]	–	–	–	–
C=CCOc1ccccc1C1CC(c2csc(C3CCN(C(=O)Nc4cc(C)ccc4C)CC3)n2)=NO1 (racemic) [Ex. 46]	3.91[a];	98%	3.81[b]	100%	–
C#CCOc1cccc(C2CC(c3csc(C4CCN(C(=O)Cn5nc(C(F)(F)F)cc5C)CC4)n3)=NO2)c1 (stereo not drawn) [Ex. 10]	3.49[a];	–	3.3[b]	–	–
C#CCOc1c(F)cccc1C1CC(c2csc(C3CCN(C(=O)Cn4nc(C(F)(F)F)cc4C)CC3)n2)=NO1 (stereo not drawn) [Ex. 9]	–	100%	–	94%	–
O=C(Cn1nc(C(F)(F)F)cc1C(F)(F)F)N1CCC(c2nc(C3=NOC(c4ccccc4OCC4CC4)C3)cs2)CC1 (stereo not drawn) [Ex. 16]	4.59[a]	96%	–	–	–
C#CCOc1ccc(F)c(C2CC(c3csc(C4CCN(C(=O)Cn5nc(C(F)(F)F)cc5C)CC4)n3)=NO2)c1F (stereo not drawn) [Ex. 8]	–	100%	–	100%	–
CC[S+]([O-])Cc1ccccc1C1CC(c2csc(C3CCN(C(=O)Cn4nc(C(F)(F)F)cc4C)CC3)n2)=NO1 (mixture of isomers) [Ex. 36]	2.53[a]	–	–	100%	–
C=CCOc1cc(Cl)cc(Cl)c1C1CC(c2csc(C3CCN(C(=O)Cn4nc(C(F)F)cc4C)CC3)n2)=NO1 (stereo not drawn) [Ex. 24]	3.95[a];	–	3.97[b];	–	–
C#CCOc1cc(Cl)cc(Cl)c1C1CC(c2csc(C3CCN(C(=O)Cn4nc(C(F)F)cc4C)CC3)n2)=NO1 (stereo not drawn) [Ex. 21]	3.66[a];	–	3.57[b]	–	–
C#CCOc1cc(C)ccc1C1CC(c2csc(C3CCN(C(=O)Cn4nc(C(F)(F)F)cc4C)CC3)n2)=NO1 (stereo not drawn) [Ex. 26]	3.67[a];	–	3.61[b]	100%	–
COCCOCc1ccccc1C1CC(c2csc(C3CCN(C(=O)Cn4nc(C(F)(F)F)cc4C)CC3)n2)=NO1 (racemic) [Ex. 44]	3.28[a]	–	–	94%	–
C=CCOc1ccc(F)c(C2CC(c3csc(C4CCN(C(=O)Cn5nc(C(F)(F)F)cc5C)CC4)n3)=NO2)c1F (stereo not drawn) [Ex. 19]	–	98%	–	98%	–
C#CCOc1cc(Cl)ccc1C1CC(c2csc(C3CCN(C(=O)Cn4nc(C(F)F)cc4C)CC3)n2)=NO1 (stereo not drawn) [Ex. 20]	3.37[a];	–	3.36[b]	–	–
Cc1cc(C(F)(F)F)nn1CC(=O)N1CCC(c2nc(C3=NOC(c4ccccc4NS(C)(=O)=O)C3)cs2)CC1 (stereo not drawn) [Ex. 5, N-(2-{3-[2-(1-{[5-Methyl-3-(trifluoromethyl)-1H-pyrazol-1-yl]acetyl}piperidin-4-yl)-1,3-thiazol-4-yl]-4,5-dihydro-1,2-oxazol-5-yl}phenyl)methanesulphonamide]	–	84%	–	95%	–
C#CCOc1cccc(F)c1C1CC(c2csc(C3CCN(C(=O)Cn4nc(C(F)F)cc4C)CC3)n2)=NO1 (stereo not drawn) [Ex. 31]	2.92[a]	–	–	–	–
COc1ccc(C2CC(c3csc(C4CCN(C(=O)Cn5nc(C(F)F)cc5C)CC4)n3)=NO2)c(OCC2CC2)c1 (stereo not drawn) [Ex. 27]	3.5[a]	–	–	–	–
Cc1cc(C(F)F)nn1CC(=O)N1CCC(c2nc(C3=NOC(c4c(F)cccc4OCC4CC4)C3)cs2)CC1 (stereo not drawn) [Ex. 28]	3.44[a]	–	–	–	–
